# Tested on: cyclin E
# Test: Western blot of cellular biomarker cyclin E
# Assay type: cell-based
# Conditions: JEKO-1; 500 nM Compound 42; 48 hours; compared to palbociclib 1 μM
# Procedure: Various cancer cells lines were treated with Compound 42 or palbociclib (control) to measure the expression of cyclin D, cyclin E, pRb, and Rb.
# Day 1: 6 well plate was seeded with 3×10^5 cells/well with a final volume of 3 mL and incubated for 24 hours at 37° C.
# Day 2: The media was removed and Compound 42 (see below for dose) or palbociclib (1 μM) as positive control were added to the wells the desired concentration in cell culture media, giving a final volume of 3 mL per well. The plate was incubated for 24 hours at 37° C. (or desired period).
# Day 3: The media was removed from wells and washed ×3 with PBS. 500 μl of trypsin was added to the wells and incubate until cells detach. 500 μl media was added to neutralise trypsin, transferred to 2 ml Eppendorfs, and centrifuged (1500 RPM for 5 minutes). While spinning, the wells were washed with 1 mL PBS to collect any remaining cells. This wash was used to centrifuged cell pellet. After the first spin, the supernatant was discarded and the pellet was washed with PBS collected from the previous step. […] The protein concentration was determined using the BCA assay kit.
# Day 4: Western blot analysis was performed. […] The membrane was blocked using 5% non-fat powdered milk* made up in 1×TBS containing 0.1% Tween (TBS-T and incubated for 1 hr with gentle rocking. The observation from the Western blot analysis is quantified in FIGS. 2-7D. […]
smiles,measurement,value
"Cc1ccccc1C(=O)Nc1nc(NC(=O)c2ccccc2C)n(-c2ccc(OC(F)(F)F)cc2)n1 [Compound 42, N,N′-(1-(4-(trifluoromethoxy)phenyl)-1H-1,2,4-triazole-3,5-diyl)bis(2-methylbenzamide)]",cyclin E expression,reduction of cyclin E and cyclin D expression
